From patent publication US20140249135A1, “PIM KINASE INHIBITORS AND METHODS OF THEIR USE” (NOVARTIS AG, priority 2007, published 2014)
Where two headings read alike, the source gives them in different places.

Key:
Pim1 kinase = Pim1 kinase (Homo sapiens, UniProt P11309); assay: Pim1 ATP depletion assay; assay type: biochemical; details: Pim1 ATP depletion assay;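 also: Luciferase-luciferin luminescence readout of residual ATP after PIM1 transfers phosphate to a peptide substrate, 40 µM ATP added, reaction run to roughly half ATP consumption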
Sequence of Pim1 kinase (P11309 whole entry): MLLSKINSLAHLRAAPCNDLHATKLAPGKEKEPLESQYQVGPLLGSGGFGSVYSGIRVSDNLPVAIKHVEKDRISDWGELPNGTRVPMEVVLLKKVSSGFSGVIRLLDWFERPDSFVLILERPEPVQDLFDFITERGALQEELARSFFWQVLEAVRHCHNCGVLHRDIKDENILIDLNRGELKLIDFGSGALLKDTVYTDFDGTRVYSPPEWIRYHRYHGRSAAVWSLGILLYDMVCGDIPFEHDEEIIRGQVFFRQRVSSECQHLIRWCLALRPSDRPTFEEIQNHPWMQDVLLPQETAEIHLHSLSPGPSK

Pim2 kinase = Pim2 kinase (Homo sapiens, UniProt Q9P1W9); assay: Pim2 ATP depletion assay; assay type: biochemical;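 also: Luciferase-based luminescent readout of ATP remaining after PIM2 phosphorylates a BAD peptide, final 5 nM enzyme, 4 µM ATP, 10 µM peptide, 2.5% DMSO, run to roughly half ATP consumption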
Sequence of Pim2 kinase (Q9P1W9 whole entry): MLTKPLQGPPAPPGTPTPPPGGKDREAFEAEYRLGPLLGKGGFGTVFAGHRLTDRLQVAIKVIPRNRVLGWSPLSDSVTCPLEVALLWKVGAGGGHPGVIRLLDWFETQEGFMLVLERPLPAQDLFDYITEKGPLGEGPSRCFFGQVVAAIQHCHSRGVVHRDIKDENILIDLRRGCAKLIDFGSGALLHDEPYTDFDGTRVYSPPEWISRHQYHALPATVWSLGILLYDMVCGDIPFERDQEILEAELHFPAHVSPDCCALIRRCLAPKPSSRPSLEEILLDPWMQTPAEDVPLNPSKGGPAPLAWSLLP

Pim3 kinase = Pim3 kinase (Homo sapiens, UniProt Q86V86); assay: Pim3 ATP depletion assay; assay type: biochemical
HEL 92.1.7 cells = assay: Cell proliferation assay (CellTiter-Glo), HEL 92.1.7; assay type: cell-based; details: Homo sapiens
Experimental: HEL 92.1.7 cells (ATTC No. TIB-180, an erythroleukemia line derived from malignant peripheral blood), MV4-11 cells (ATCC No. CRL-9591, a human acute monocytic leukemia line) and PC3 cells (ATCC No. CRL-1435, a human prostatic adenocarcinoma line) were cultured in RPMI1640 supplemented with 10% FBS, sodium pyruvate and antibiotics. Cells were plated in the same medium at a density of 1000 cells per well into 96 well tissue culture plates, with outside wells vacant, on the day of assay.
Test compounds supplied in DMSO were diluted into DMSO at 500 times the desired final concentrations before dilution into culture media to 2 times final concentrations. Equal volumes of 2× compounds were added to the cells in 96 well plates and incubated at 37° C. for 3 days.
After 3 days plates were equilibrated to room temperature and equal volume of CellTiter-Glow Reagent (Promega) was added to the culture wells. The plates were agitated briefly and luminescent signal was measured with luminometer. The percent inhibition of the signal seen in cells treated with DMSO alone vs. cells treated with control compound was calculated and used to determine EC50 values (i.e., the concentration of a test compound that is required to obtain 50% of the maximum effect in the cells) for tested compounds, as shown in Example 763.

Structure (SMILES): COc1ccccc1-c1ccc(N)c(C(=O)Nc2cnccc2N2CCC[C@H](N)C2)n1 [Example 337]
- IC50 (Pim1 kinase; read-out: IC50 (μM) PIM1): < 1 µM
- IC50 (Pim2 kinase; read-out: IC50 (μM) PIM2): < 1 µM
- IC50 (Pim3 kinase; read-out: IC50 (μM) PIM3): < 1 µM
- EC50 (HEL 92.1.7 cells; read-out: EC50 (μM) HEL 92.1.7): 5 to 10 µM

Structure (SMILES): Cc1ccccc1-c1cnc(N)c(C(=O)Nc2[nH]c(=O)ncc2N2CCCCC2)n1 [Example 591, 3-amino-6-o-tolyl-pyrazine-2-carboxylic acid (2-oxo-5-piperidin-1-yl-2,3-dihydro-pyrimidin-4-yl)-amide]
- IC50 (Pim1 kinase; read-out: PIM1 IC50): < 1 µM
- IC50 (Pim2 kinase; read-out: PIM2 IC50): < 1 µM
- IC50 (Pim3 kinase; read-out: PIM3 IC50): < 1 µM
- EC50 (HEL 92.1.7 cells; read-out: HEL 92.1.7 EC50): 5 to 10 µM

Structure (SMILES): CNC(=O)c1ccc(F)c(-c2ccc(N)c(C(=O)Nc3cnccc3N3CCC[C@H](N)C3)n2)c1 [Example 334, 3-amino-6-(2-fluoro-5-methylcarbamoyl-phenyl)-pyridine-2-carboxylic acid ((S)-3-amino-3,4,5,6-tetra-hydro-2H-[1,4′]bipyridinyl-3′-yl)-amide]
- IC50 (Pim1 kinase; read-out: IC50 (μM) PIM1): < 1 µM
- IC50 (Pim2 kinase; read-out: IC50 (μM) PIM2): < 1 µM
- IC50 (Pim3 kinase; read-out: IC50 (μM) PIM3): < 1 µM
- EC50 (HEL 92.1.7 cells; read-out: EC50 (μM) HEL 92.1.7): 5 to 10 µM

Structure (SMILES): Nc1ccc(-c2ccncc2)nc1C(=O)Nc1cnccc1N1CCC[C@H](N)C1 [Example 415, 5-amino-[2,4′]bipyridinyl-6-carboxylic acid ((S)-3-amino-3,4,5,6-tetrahydro-2H-[1,4′]bi-pyridinyl-3′-yl)-amide]
- IC50 (Pim1 kinase; read-out: IC50 (μM) PIM1): < 1 µM
- IC50 (Pim2 kinase; read-out: IC50 (μM) PIM2): < 1 µM
- IC50 (Pim3 kinase; read-out: IC50 (μM) PIM3): < 1 µM
- EC50 (HEL 92.1.7 cells; read-out: EC50 (μM) HEL 92.1.7): < 1 µM

Structure (SMILES): COc1cccc(-c2ccc(N)c(C(=O)Nc3cnccc3N3CCC[C@H](N)C3)n2)n1 [Example 413, 5-amino-6′-methoxy-[2,2′]bi-pyridinyl-6-carboxylic acid ((S)-3-amino-3,4,5,6-tetrahydro-2H-[1,4′]bipyridinyl-3′-yl)-amide]
- IC50 (Pim1 kinase; read-out: IC50 (μM) PIM1): < 1 µM
- IC50 (Pim2 kinase; read-out: IC50 (μM) PIM2): < 1 µM
- IC50 (Pim3 kinase; read-out: IC50 (μM) PIM3): < 1 µM
- EC50 (HEL 92.1.7 cells; read-out: EC50 (μM) HEL 92.1.7): < 1 µM

Structure (SMILES): CCN(CC)S(=O)(=O)c1ccc(C)c(-c2ccc(N)c(C(=O)Nc3cnccc3N3CCC[C@H](N)C3)n2)c1 [Example 329, 3-amino-6-(5-diethyl-sulfamoyl-2-methyl-phenyl)-pyridine-2-carboxylic acid ((S)-3-amino-3,4,5,6-tetra-hydro-2H-[1,4′]bipyridinyl-3′-yl)-amide]
- IC50 (Pim1 kinase; read-out: IC50 (μM) PIM1): < 1 µM
- IC50 (Pim2 kinase; read-out: IC50 (μM) PIM2): < 1 µM
- IC50 (Pim3 kinase; read-out: IC50 (μM) PIM3): < 1 µM
- EC50 (HEL 92.1.7 cells; read-out: EC50 (μM) HEL 92.1.7): 5 to 10 µM

Structure (SMILES): Cc1cc(Cl)ccc1-c1ccc(N)c(C(=O)Nc2cnccc2N2CCC[C@H](N)C2)n1 [Example 429, 3-amino-6-(4-chloro-2-methyl-phenyl)-pyridine-2-carboxylic acid ((S)-3-amino-3,4,5,6-tetra-hydro-2H-[1,4′]bipyridinyl-3′-yl)-amide]
- IC50 (Pim1 kinase; read-out: IC50 (μM) PIM1): < 1 µM
- IC50 (Pim2 kinase; read-out: IC50 (μM) PIM2): < 1 µM
- IC50 (Pim3 kinase; read-out: IC50 (μM) PIM3): < 1 µM
- EC50 (HEL 92.1.7 cells; read-out: EC50 (μM) HEL 92.1.7): 5 to 10 µM

Structure (SMILES): Cc1ccc(S(=O)(=O)NC(C)(C)C)cc1-c1ccc(N)c(C(=O)Nc2cnccc2N2CCC[C@H](N)C2)n1 [Example 335, 3-amino-6-(5-tert-butyl-sulfamoyl-2-methyl-phenyl)-pyridine-2-carboxylic acid ((S)-3-amino-3,4,5,6-tetra-hydro-2H-[1,4′]bipyridinyl-3′-yl)-amide]
- IC50 (Pim1 kinase; read-out: IC50 (μM) PIM1): < 1 µM
- IC50 (Pim2 kinase; read-out: IC50 (μM) PIM2): < 1 µM
- IC50 (Pim3 kinase; read-out: IC50 (μM) PIM3): < 1 µM
- EC50 (HEL 92.1.7 cells; read-out: EC50 (μM) HEL 92.1.7): 5 to 10 µM

Structure (SMILES): COc1cc(F)ccc1-c1ccc(N)c(C(=O)Nc2cnccc2N2CCC[C@H](N)C2)n1 [Example 428, 3-amino-6-(4-fluoro-2-methoxy-phenyl)-pyridine-2-carboxylic acid ((S)-3-amino-3,4,5,6-tetra-hydro-2H-[1,4′]bipyridinyl-3′-yl)-amide]
- IC50 (Pim1 kinase; read-out: IC50 (μM) PIM1): < 1 µM
- IC50 (Pim2 kinase; read-out: IC50 (μM) PIM2): < 1 µM
- IC50 (Pim3 kinase; read-out: IC50 (μM) PIM3): < 1 µM
- EC50 (HEL 92.1.7 cells; read-out: EC50 (μM) HEL 92.1.7): 5 to 10 µM

Structure (SMILES): COc1ncccc1-c1ccc(N)c(C(=O)Nc2cnccc2N2CCC[C@H](N)C2)n1 [Example 423, 5-amino-2′-methoxy-[2,3′]bi-pyridinyl-6-carboxylic acid ((S)-3-amino-3,4,5,6-tetrahydro-2H-[1,4′]bipyridinyl-3′-yl)-amide]
- IC50 (Pim1 kinase; read-out: IC50 (μM) PIM1): < 1 µM
- IC50 (Pim2 kinase; read-out: IC50 (μM) PIM2): < 1 µM
- IC50 (Pim3 kinase; read-out: IC50 (μM) PIM3): < 1 µM
- EC50 (HEL 92.1.7 cells; read-out: EC50 (μM) HEL 92.1.7): 1 to 5 µM

Structure (SMILES): Nc1ccc(-c2cccnc2F)nc1C(=O)Nc1cnccc1N1CCC[C@H](N)C1 [Example 419, 5-amino-2′-fluoro-[2,3′]bi-pyridinyl-6-carboxylic acid ((S)-3-amino-3,4,5,6-tetrahydro-2H-[1,4′]bipyridinyl-3′-yl)-amide]
- IC50 (Pim1 kinase; read-out: IC50 (μM) PIM1): < 1 µM
- IC50 (Pim2 kinase; read-out: IC50 (μM) PIM2): < 1 µM
- IC50 (Pim3 kinase; read-out: IC50 (μM) PIM3): < 1 µM
- EC50 (HEL 92.1.7 cells; read-out: EC50 (μM) HEL 92.1.7): 1 to 5 µM

Structure (SMILES): Cc1cc(F)ccc1-c1ccc(N)c(C(=O)Nc2cnccc2N2CCC[C@H](N)C2)n1 [Example 430, 3-amino-6-(4-fluoro-2-methyl-phenyl)-pyridine-2-carboxylic acid ((S)-3-amino-3,4,5,6-tetra-hydro-2H-[1,4′]bipyridinyl-3′-yl)-amide]
- IC50 (Pim1 kinase; read-out: IC50 (μM) PIM1): < 1 µM
- IC50 (Pim2 kinase; read-out: IC50 (μM) PIM2): < 1 µM
- IC50 (Pim3 kinase; read-out: IC50 (μM) PIM3): < 1 µM
- EC50 (HEL 92.1.7 cells; read-out: EC50 (μM) HEL 92.1.7): 1 to 5 µM

Structure (SMILES): COc1ncccc1-c1ccc(N)c(C(=O)Nc2cnccc2N2CCCCC2)n1 [Example 587, 5-amino-2′-methoxy-[2,3′]bi-pyridinyl-6-carboxylic acid (3,4,5,6-tetrahydro-2H-[1,4′]bipyridinyl-3′-yl)-amide]
- IC50 (Pim1 kinase; read-out: PIM1 IC50): < 1 µM
- IC50 (Pim2 kinase; read-out: PIM2 IC50): < 1 µM
- IC50 (Pim3 kinase; read-out: PIM3 IC50): < 1 µM
- EC50 (HEL 92.1.7 cells; read-out: HEL 92.1.7 EC50): < 1 µM

Structure (SMILES): Nc1ccc(-c2ccncc2F)nc1C(=O)Nc1cnccc1N1CCC[C@H](N)C1 [Example 339, 5-amino-3′-fluoro-[2,4′]bi-pyridinyl-6-carboxylic acid ((S)-3-amino-3,4,5,6-tetra-hydro-2H-[1,4′]bipyridinyl-3′-yl)-amide]
- IC50 (Pim1 kinase; read-out: IC50 (μM) PIM1): < 1 µM
- IC50 (Pim2 kinase; read-out: IC50 (μM) PIM2): < 1 µM
- IC50 (Pim3 kinase; read-out: IC50 (μM) PIM3): < 1 µM
- EC50 (HEL 92.1.7 cells; read-out: EC50 (μM) HEL 92.1.7): 1 to 5 µM

Structure (SMILES): Nc1cc(-c2ccc(N)c(C(=O)Nc3cnccc3N3CCC[C@H](N)C3)n2)ccn1 [Example 412, 5,2′-diamino-[2,4′]bipyridinyl-6-carboxylic acid ((S)-3-amino-3,4,5,6-tetrahydro-2H-[1,4′]bi-pyridinyl-3′-yl)-amide]
- IC50 (Pim1 kinase; read-out: IC50 (μM) PIM1): < 1 µM
- IC50 (Pim2 kinase; read-out: IC50 (μM) PIM2): < 1 µM
- IC50 (Pim3 kinase; read-out: IC50 (μM) PIM3): < 1 µM
- EC50 (HEL 92.1.7 cells; read-out: EC50 (μM) HEL 92.1.7): 5 to 10 µM

Structure (SMILES): Cc1ccc(S(=O)(=O)N2CCCC2)cc1-c1ccc(N)c(C(=O)Nc2cnccc2N2CCC[C@H](N)C2)n1 [Example 321, 3-amino-6-[2-methyl-5-(pyrrolidine-1-sulfonyl)-phenyl]-pyridine-2-carboxylic acid ((S)-3-amino-3,4,5,6-tetrahydro-2H-[1,4′]bi-pyridinyl-3′-yl)-amide]
- IC50 (Pim1 kinase; read-out: IC50 (μM) PIM1): < 1 µM
- IC50 (Pim2 kinase; read-out: IC50 (μM) PIM2): < 1 µM
- IC50 (Pim3 kinase; read-out: IC50 (μM) PIM3): < 1 µM
- EC50 (HEL 92.1.7 cells; read-out: EC50 (μM) HEL 92.1.7): 1 to 5 µM

Structure (SMILES): Cc1cccc(C)c1-c1ccc(N)c(C(=O)Nc2cnccc2N2CCC[C@H](N)C2)n1 [Example 426, 3-amino-6-(2,6-dimethyl-phenyl)-pyridine-2-carboxylic acid ((S)-3-amino-3,4,5,6-tetra-hydro-2H-[1,4′]bipyridinyl-3′-yl)-amideQ]
- IC50 (Pim1 kinase; read-out: IC50 (μM) PIM1): < 1 µM
- IC50 (Pim2 kinase; read-out: IC50 (μM) PIM2): < 1 µM
- IC50 (Pim3 kinase; read-out: IC50 (μM) PIM3): < 1 µM
- EC50 (HEL 92.1.7 cells; read-out: EC50 (μM) HEL 92.1.7): 5 to 10 µM

Structure (SMILES): Nc1ncc(-c2ccc(O)cc2)nc1C(=O)Nc1cnccc1N1CCCC(N)C1 (stereo not shown) [Example 358, 3-amino-6-(4-hydroxy-phenyl)-pyrazine-2-carboxylic acid (3-amino-3,4,5,6-tetra-hydro-2H-[1,4′]bipyridinyl-3′-yl)-amide]
- IC50 (Pim1 kinase; read-out: IC50 (μM) PIM1): < 1 µM
- IC50 (Pim2 kinase; read-out: IC50 (μM) PIM2): < 1 µM
- IC50 (Pim3 kinase; read-out: IC50 (μM) PIM3): < 1 µM
- EC50 (HEL 92.1.7 cells; read-out: EC50 (μM) HEL 92.1.7): < 1 µM

Structure (SMILES): CS(=O)(=O)c1ccc(-c2ccc(N)c(C(=O)Nc3cnccc3N3CCC[C@H](N)C3)n2)cc1 [Example 319, 3-amino-6-(4-methane-sulfonyl-phenyl)-pyridine-2-carboxylic acid ((S)-3-amino-3,4,5,6-tetrahydro-2H-[1,4′]bi-pyridinyl-3′-yl)-amide]
- IC50 (Pim1 kinase; read-out: IC50 (μM) PIM1): < 1 µM
- IC50 (Pim2 kinase; read-out: IC50 (μM) PIM2): < 1 µM
- IC50 (Pim3 kinase; read-out: IC50 (μM) PIM3): < 1 µM
- EC50 (HEL 92.1.7 cells; read-out: EC50 (μM) HEL 92.1.7): 1 to 5 µM
